Assay results from ChEMBL document CHEMBL2440115, “Discovery and characterization of synthetic 4'-hydroxyflavones-New CK2 inhibitors from flavone family” (Bioorg Med Chem, 2013).

Legend:
Casein kinase II = Casein kinase II (Homo sapiens, UniProt P19784+P67870+P68400); experiment: Inhibition of recombinant human CK2 using RRRDDDSDDD as substrate after 20 mins by beta counting analysis in presence of [gamma-labeled 32P]ATP; format: protein-complex assay
[1] = target: Casein kinase II (Homo sapiens) (UniProt P67870+P68400+P19784); experiment: Inhibition of recombinant human CK2 using RRRDDDSDDD as substrate assessed as residual activity at 10 uM after 20 mins by beta counting analysis in presence of [gamma-labeled 32P]ATP relative to control; format: protein-complex assay

Casein kinase II, sequence (P67870 whole entry): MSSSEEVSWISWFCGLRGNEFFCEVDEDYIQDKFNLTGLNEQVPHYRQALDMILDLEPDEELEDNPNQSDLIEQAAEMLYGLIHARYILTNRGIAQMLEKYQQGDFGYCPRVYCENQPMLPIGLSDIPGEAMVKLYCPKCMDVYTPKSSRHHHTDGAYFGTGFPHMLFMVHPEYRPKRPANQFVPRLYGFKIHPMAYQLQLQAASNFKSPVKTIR
Casein kinase II, sequence (P68400 whole entry): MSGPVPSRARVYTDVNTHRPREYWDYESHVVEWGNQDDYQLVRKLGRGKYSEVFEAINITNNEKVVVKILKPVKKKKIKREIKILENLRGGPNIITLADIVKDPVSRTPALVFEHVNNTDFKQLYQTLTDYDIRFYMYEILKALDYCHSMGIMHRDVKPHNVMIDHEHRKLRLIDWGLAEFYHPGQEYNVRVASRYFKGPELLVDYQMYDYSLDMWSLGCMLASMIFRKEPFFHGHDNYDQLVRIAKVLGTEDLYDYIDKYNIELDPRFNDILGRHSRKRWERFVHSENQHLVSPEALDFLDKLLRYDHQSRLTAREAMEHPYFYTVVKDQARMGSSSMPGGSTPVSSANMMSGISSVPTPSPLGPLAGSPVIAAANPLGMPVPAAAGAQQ
Casein kinase II, sequence (P19784 whole entry): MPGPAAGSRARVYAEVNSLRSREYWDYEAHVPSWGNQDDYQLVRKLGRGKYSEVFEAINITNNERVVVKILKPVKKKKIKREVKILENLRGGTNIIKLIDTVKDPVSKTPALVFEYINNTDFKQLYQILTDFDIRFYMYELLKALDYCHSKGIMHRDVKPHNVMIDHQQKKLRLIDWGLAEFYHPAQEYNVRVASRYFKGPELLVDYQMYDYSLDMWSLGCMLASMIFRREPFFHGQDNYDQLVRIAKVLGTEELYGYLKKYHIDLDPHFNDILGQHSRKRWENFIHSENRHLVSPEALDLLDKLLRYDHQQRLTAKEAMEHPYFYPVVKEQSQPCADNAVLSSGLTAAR

In the case of COc1ccc(-c2cc(=O)c3cc(C)cc(C)c3o2)cc1O, the IC50 (Casein kinase II) is reported as over 30 µM.
O=C(COc1c(-c2ccccc2Cl)oc2ccccc2c1=O)N1CCOCC1 gave an IC50 (Casein kinase II) of over 30 µM and an Activity [1] of 97%.
Work on COc1cc(-c2cc(=O)c3ccccc3o2)ccc1O yielded an IC50 (Casein kinase II) of 0.8 µM and an Activity [1] of 5%.
Work on COc1cc(-c2cc(=O)c3c(C)c(Cl)c(C)cc3o2)ccc1O yielded an IC50 (Casein kinase II) of 2 µM.
With Cc1ccc2oc(-c3cc(Br)ccc3O)c(O)c(=O)c2c1 the IC50 (Casein kinase II) was 28 µM and the Activity [1] was 45%.
With Cc1cc(C)c2c(=O)cc(-c3ccc(N(C)C)cc3)oc2c1 the IC50 (Casein kinase II) was over 30 µM and the Activity [1] was 58%.
With COc1ccc(-c2cc(=O)c3c4c(ccc3o2)OCN(Cc2ccco2)C4)cc1 the IC50 (Casein kinase II) was 12 µM and the Activity [1] was 17%.
Cc1ccc2oc(-c3ccc(Br)cc3)c(O)c(=O)c2c1 gave an IC50 (Casein kinase II) of over 30 µM and an Activity [1] of 65%.
Molecule COc1ccc(-c2oc3ccc(C)cc3c(=O)c2OCC(=O)O)cc1 has an IC50 (Casein kinase II) of over 30 µM and an Activity [1] of 77%.
COc1ccc2c(=O)cc(-c3ccc(O)c(OC)c3)oc2c1 was tested, and the IC50 (Casein kinase II) was 0.175 µM.
Cc1cc(C)c2oc(-c3ccc(O)c([N+](=O)[O-])c3)cc(=O)c2c1 gave an IC50 (Casein kinase II) of 0.012 µM.
With COc1cc(-c2cc(=O)c3ccc(C)c(C)c3o2)ccc1O the IC50 (Casein kinase II) was 0.3 µM.
COc1cc(-c2cc(=O)c3cc(Cl)cc(Cl)c3o2)cc(Cl)c1O gave an IC50 (Casein kinase II) of 0.02 µM.
For COc1ccc(-c2cc(=O)c3cc(O)ccc3o2)cc1, the IC50 (Casein kinase II) was 30 µM and the Activity [1] was 49%.
COc1cc(-c2cc(=O)c3cc(C)cc(C)c3o2)cc(Cl)c1O gave an IC50 (Casein kinase II) of 0.09 µM.
COc1ccc(-c2cc(=O)c3cc(C)ccc3o2)cc1 gave an IC50 (Casein kinase II) of over 30 µM and an Activity [1] of 73%.
For COc1ccc(-c2oc3ccccc3c(=O)c2OC(C)=O)cc1, the IC50 (Casein kinase II) was over 30 µM and the Activity [1] was 68%.
With COc1ccc(-c2cc(=O)c3c(CN(C)Cc4ccccc4)c(O)ccc3o2)cc1 the IC50 (Casein kinase II) was over 30 µM and the Activity [1] was 73%.
Molecule COc1cccc(-c2oc3ccc(C)cc3c(=O)c2O)c1 has an IC50 (Casein kinase II) of 25 µM and an Activity [1] of 47%.
COc1cc(-c2cc(=O)c3cc(O)ccc3o2)cc(OC)c1OC showed an IC50 (Casein kinase II) of 26 µM and an Activity [1] of 45%.
COc1cc(-c2cc(=O)c3cc(Cl)ccc3o2)ccc1O showed an IC50 (Casein kinase II) of 0.24 µM.
Molecule Cc1ccc2oc(-c3ccc(C(C)C)cc3)c(O)c(=O)c2c1 has an IC50 (Casein kinase II) of 26 µM and an Activity [1] of 39%.
Cc1ccc2oc(-c3ccc(F)cc3)c(O)c(=O)c2c1 showed an IC50 (Casein kinase II) of over 30 µM and an Activity [1] of 60%.
In the case of COc1cc(-c2oc3ccc(C)cc3c(=O)c2O)cc(OC)c1OC, the IC50 (Casein kinase II) is reported as over 30 µM and the Activity [1] is reported as 65%.
Work on COc1ccc(-c2oc3c(C)cc(C)cc3c(=O)c2OS(C)(=O)=O)cc1 yielded an IC50 (Casein kinase II) of 28 µM and an Activity [1] of 46%.
With Cc1cc(C)c2oc(-c3ccc(O)c(O)c3)cc(=O)c2c1 the IC50 (Casein kinase II) was 0.45 µM.
In the case of COc1cccc(-c2cc(=O)c3cc(C)cc(C)c3o2)c1O, the IC50 (Casein kinase II) is reported as over 30 µM.
Cc1ccc(-c2oc3c(C)cc(C)cc3c(=O)c2OCC(=O)O)cc1 was tested, and the IC50 (Casein kinase II) was 28 µM and the Activity [1] was 50%.
CCOc1cc(-c2cc(=O)c3ccccc3o2)ccc1O gave an IC50 (Casein kinase II) of 7.5 µM and an Activity [1] of 21%.
Work on Cc1ccc2oc(-c3ccc(Cl)cc3)c(O)c(=O)c2c1 yielded an IC50 (Casein kinase II) of 23 µM and an Activity [1] of 38%.
With CCOc1cc(-c2cc(=O)c3cc(C)ccc3o2)ccc1O the IC50 (Casein kinase II) was 8 µM and the Activity [1] was 18%.
Work on Cc1cc(C)c2oc(-c3cccc(O)c3)cc(=O)c2c1 yielded an IC50 (Casein kinase II) of 2.2 µM.
Work on COc1cc(-c2cc(=O)c3ccc4ccccc4c3o2)cc(Cl)c1O yielded an IC50 (Casein kinase II) of 0.087 µM.
COc1ccc2oc(-c3ccc(O)c(OC)c3)cc(=O)c2c1 showed an IC50 (Casein kinase II) of 0.2 µM.
Work on Cc1cc(C)c2oc(-c3ccc(O)cc3)cc(=O)c2c1 yielded an IC50 (Casein kinase II) of 1.6 µM.
COc1cc(-c2cc(=O)c3cc(C)cc(C)c3o2)cc([N+](=O)[O-])c1O was tested, and the IC50 (Casein kinase II) was 0.066 µM.
Work on Cc1cc(C)c2oc(-c3ccc(O)c(Br)c3)cc(=O)c2c1 yielded an IC50 (Casein kinase II) of 0.05 µM.
With COc1cc(-c2cc(=O)c3cc(C)c(C)cc3o2)ccc1O the IC50 (Casein kinase II) was 3 µM.
For Cc1ccc2oc(-c3ccccc3)c(OCC(=O)N3CCOCC3)c(=O)c2c1, the IC50 (Casein kinase II) was over 30 µM and the Activity [1] was 95%.
CCOc1ccc(-c2oc3ccc(C)cc3c(=O)c2O)cc1 showed an IC50 (Casein kinase II) of over 30 µM and an Activity [1] of 57%.
With CCN1CCN(Cc2c(O)ccc3oc(-c4cc(OC)c(OC)c(OC)c4)cc(=O)c23)CC1 the IC50 (Casein kinase II) was over 30 µM and the Activity [1] was 77%.
For COc1cc(-c2cc(=O)c3cc(C)cc(C)c3o2)cc(Br)c1O, the IC50 (Casein kinase II) was 0.65 µM.
Cc1ccc2oc(-c3ccc(O)cc3)cc(=O)c2c1 gave an IC50 (Casein kinase II) of 8 µM.
Work on COc1ccc(-c2cc(=O)c3cc(C)ccc3o2)cc1OC yielded an IC50 (Casein kinase II) of over 30 µM and an Activity [1] of 81%.
Cc1ccc2oc(-c3ccccc3)c(O)c(=O)c2c1 gave an IC50 (Casein kinase II) of over 30 µM and an Activity [1] of 80%.
Work on CCc1ccc2oc(-c3ccc(O)c(OC)c3)cc(=O)c2c1 yielded an IC50 (Casein kinase II) of 0.12 µM.
With Cc1ccc(-c2oc3ccccc3c(=O)c2OCC(=O)N2CCOCC2)cc1 the IC50 (Casein kinase II) was over 30 µM and the Activity [1] was 97%.
With COc1ccc(-c2oc3ccccc3c(=O)c2O)cc1OC [3-HYDROXY-3',4'-DIMETHOXYFLAVONE] the IC50 (Casein kinase II) was over 30 µM and the Activity [1] was 66%.
For COc1cc(-c2cc(=O)c3c(C)cc(C)cc3o2)ccc1O, the IC50 (Casein kinase II) was 0.03 µM.
O=c1cc(-c2ccc(F)cc2)oc2ccccc12 showed an IC50 (Casein kinase II) of over 30 µM and an Activity [1] of 77%.
COc1ccc(-c2oc3ccc(C)cc3c(=O)c2O)cc1OC was tested, and the IC50 (Casein kinase II) was over 30 µM and the Activity [1] was 64%.
Work on COc1cc(-c2cc(=O)c3ccc4ccccc4c3o2)ccc1O yielded an IC50 (Casein kinase II) of 0.028 µM.
Work on COc1cc(-c2cc(=O)c3cc(Br)ccc3o2)ccc1O yielded an IC50 (Casein kinase II) of 0.12 µM.
Work on COc1cc(-c2cc(=O)c3cc(C)ccc3o2)ccc1O yielded an IC50 (Casein kinase II) of 0.32 µM.
With Cc1ccc(-c2oc3ccc(C)cc3c(=O)c2O)cc1 the IC50 (Casein kinase II) was over 30 µM and the Activity [1] was 56%.
COc1cc(-c2cc(=O)c3cc(C)ccc3o2)cc(OC)c1OC was tested, and the IC50 (Casein kinase II) was over 30 µM and the Activity [1] was 92%.
COc1cc(-c2cc(=O)c3ccc(C)cc3o2)ccc1O showed an IC50 (Casein kinase II) of 0.09 µM.
Cc1ccc(-c2cc(=O)c3cc(O)ccc3o2)cc1 gave an IC50 (Casein kinase II) of 19 µM and an Activity [1] of 35%.
In the case of Cc1cc(C)c2oc(-c3cc(Br)c(O)c(Br)c3)cc(=O)c2c1, the IC50 (Casein kinase II) is reported as 0.18 µM.
COc1ccc(-c2cc(=O)c3cc(C)cc(C)c3o2)cc1OC gave an IC50 (Casein kinase II) of over 30 µM and an Activity [1] of 87%.
COc1ccc(-c2oc3ccccc3c(=O)c2OC)cc1OC showed an IC50 (Casein kinase II) of over 30 µM and an Activity [1] of 66%.
COc1ccc(-c2cc(=O)c3cc(OC(C)=O)ccc3o2)cc1 showed an IC50 (Casein kinase II) of over 30 µM and an Activity [1] of 89%.
Work on Cc1cc(C)c2oc(-c3cc(Cl)c(O)c(Cl)c3)cc(=O)c2c1 yielded an IC50 (Casein kinase II) of 0.078 µM.
Cc1ccc(-c2cc(=O)c3cc(C)cc(C)c3o2)cc1 gave an IC50 (Casein kinase II) of 21 µM and an Activity [1] of 35%.
COc1ccc(-c2cc(=O)c3c(CN4CCOCC4)c(O)ccc3o2)cc1 gave an IC50 (Casein kinase II) of over 30 µM and an Activity [1] of 79%.
With Cc1ccc(-c2oc3ccc(C)cc3c(=O)c2OCC(=O)O)cc1 the IC50 (Casein kinase II) was over 30 µM and the Activity [1] was 83%.
COc1ccc(-c2oc3cc(C)cc(C)c3c(=O)c2OC(=O)C2COc3ccccc3O2)cc1 (stereo not given) gave an IC50 (Casein kinase II) of 21 µM and an Activity [1] of 37%.
Work on COc1cc(-c2cc(=O)c3cc(NC(C)=O)ccc3o2)ccc1O yielded an IC50 (Casein kinase II) of 0.15 µM.
COc1ccc(-c2oc3ccccc3c(=O)c2O)cc1 gave an IC50 (Casein kinase II) of over 30 µM and an Activity [1] of 86%.
Molecule COc1cc(-c2cc(=O)c3cc(Cl)c(C)cc3o2)ccc1O has an IC50 (Casein kinase II) of 0.79 µM.
O=c1cc(-c2cccc(Br)c2)oc2ccc(O)cc12 gave an IC50 (Casein kinase II) of 19 µM and an Activity [1] of 29%.
For CN(C)c1ccc(-c2oc3ccccc3c(=O)c2O)cc1, the IC50 (Casein kinase II) was over 30 µM and the Activity [1] was 73%.
COc1ccc(-c2oc3ccc(C)cc3c(=O)c2O)cc1 was tested, and the IC50 (Casein kinase II) was 28 µM and the Activity [1] was 50%.
With COc1cc(-c2cc(=O)c3c(CN(C)Cc4ccccc4)c(O)ccc3o2)cc(OC)c1OC the IC50 (Casein kinase II) was over 30 µM and the Activity [1] was 73%.
With COc1ccc(-c2cc(=O)c3c4c(ccc3o2)OCN(c2cccc(C(F)(F)F)c2)C4)cc1 the IC50 (Casein kinase II) was 15 µM and the Activity [1] was 18%.
COc1ccc(-c2cc(=O)c3c(CN4CCC(C)CC4)c(O)ccc3o2)cc1 showed an IC50 (Casein kinase II) of over 30 µM and an Activity [1] of 68%.
In the case of COc1cc(-c2cc(=O)c3c(CN4CCCCC4)c(O)ccc3o2)cc(OC)c1OC, the IC50 (Casein kinase II) is reported as over 30 µM and the Activity [1] is reported as 74%.
